Assay results taken from the NIST ThermoML archive (doi:10.1016/j.jct.2011.08.028).
Numbers after ± are expanded uncertainties.

Key:
[1] = refractive index (Na D-line) (dimensionless); conditions: 101.33 kPa, Liquid, Standard Abbe refractometry
[2] = Liquid; for speed of sound: Sing-around technique in a fixed-path interferometer; for mass density: Vibrating tube method; for viscosity: Capillary tube (Ostwald / Ubbelohde) method
[3] = xn = mol fraction of the nth substance listed; conditions: 298.15 K, 101 kPa, Liquid; for speed of sound: Sing-around technique in a fixed-path interferometer; for mass density: Vibrating tube method
[4] = refractive index (Na D-line) (dimensionless); xn = mol fraction of the nth substance listed; conditions: 298.15 K, 101 kPa, Liquid, Standard Abbe refractometry

CO [methanol]
Conditions | refractive index
[1], 298.15 K | 1.32648 ± 0.00068

[2], 298.15 K, 101 kPa
Conditions | mass density [kg/m3] | speed of sound [m/s]
– | 786.59 ± 0.12 | 1103 ± 2

CCO [ethanol] + CCCn1cc[n+](C)c1.O=S(=O)([N-]S(=O)(=O)C(F)(F)F)C(F)(F)F
x1 = 1
Conditions | mass density [kg/m3] | refractive index | speed of sound [m/s]
[3] | 785.33 ± 0.12 | – | 1144 ± 2
[4] | – | 1.35929 ± 0.00068 | –

CCCn1cc[n+](C)c1.O=S(=O)([N-]S(=O)(=O)C(F)(F)F)C(F)(F)F + CO
Conditions | mass density, [3] [kg/m3] | refractive index, [4] | speed of sound, [3] [m/s]
x2 = 0 | 1474.44 ± 0.65 | 1.42525 ± 0.0007 | 1232 ± 2
x2 = 0.099 | 1463.12 ± 0.56 | 1.4237 ± 0.0007 | 1228 ± 2
x2 = 0.2012 | 1449.69 ± 0.49 | 1.42185 ± 0.00069 | 1223 ± 2
x2 = 0.2973 | 1434.29 ± 0.42 | 1.41964 ± 0.00069 | 1218 ± 2
x2 = 0.4068 | 1411.9 ± 0.36 | 1.41652 ± 0.00069 | 1211 ± 2
x2 = 0.5067 | 1385.1 ± 0.33 | 1.41274 ± 0.00068 | 1203 ± 2
x2 = 0.601 | 1351.31 ± 0.3 | 1.40806 ± 0.00068 | 1192 ± 2
x2 = 0.6936 | 1305.17 ± 0.28 | 1.40193 ± 0.00068 | 1179 ± 2
x2 = 0.7948 | 1228.8 ± 0.26 | 1.39113 ± 0.00068 | 1159 ± 2
x2 = 0.9009 | 1085.51 ± 0.18 | 1.37097 ± 0.00068 | 1129 ± 2
x2 = 0.9499 | 972.1 ± 0.17 | 1.35417 ± 0.00068 | 1115 ± 2

CCCn1cc[n+](C)c1.O=S(=O)([N-]S(=O)(=O)C(F)(F)F)C(F)(F)F + CCO
Conditions | mass density, [3] [kg/m3] | refractive index, [4] | speed of sound, [3] [m/s]
x2 = 0 | 1474.44 ± 0.65 | 1.42525 ± 0.0007 | 1232 ± 2
x2 = 0.053 | 1465.87 ± 0.6 | 1.42443 ± 0.0007 | 1230 ± 2
x2 = 0.099 | 1458.19 ± 0.56 | 1.42378 ± 0.0007 | 1227 ± 2
x2 = 0.1914 | 1441.04 ± 0.49 | 1.42214 ± 0.0007 | 1223 ± 2
x2 = 0.2948 | 1418.06 ± 0.42 | 1.42008 ± 0.00069 | 1216 ± 2
x2 = 0.3909 | 1391.82 ± 0.37 | 1.41788 ± 0.00069 | 1209 ± 2
x2 = 0.4992 | 1354.59 ± 0.34 | 1.41421 ± 0.00068 | 1200 ± 2
x2 = 0.5912 | 1313.64 ± 0.32 | 1.41045 ± 0.00068 | 1190 ± 2
x2 = 0.6978 | 1249.77 ± 0.28 | 1.4045 ± 0.00068 | 1176 ± 2
x2 = 0.7938 | 1167.28 ± 0.26 | 1.39689 ± 0.00068 | 1162 ± 2
x2 = 0.895 | 1033.88 ± 0.18 | 1.38426 ± 0.00068 | 1146 ± 2
x2 = 0.9431 | 940.65 ± 0.16 | 1.37524 ± 0.00068 | 1142 ± 2

CO [methanol] + CCCn1cc[n+](C)c1.O=S(=O)([N-]S(=O)(=O)C(F)(F)F)C(F)(F)F
x1 = 1
Conditions | mass density [kg/m3] | refractive index | speed of sound [m/s]
[3] | 786.59 ± 0.12 | – | 1103 ± 2
[4] | – | 1.32648 ± 0.00068 | –

CC(C)O [propan-2-ol]
Conditions | refractive index
[1], 298.15 K | 1.375 ± 0.00068

[2], 298.15 K, 101 kPa
Conditions | mass density [kg/m3] | speed of sound [m/s]
– | 780.98 ± 0.13 | 1139 ± 2

CCCn1cc[n+](C)c1.O=S(=O)([N-]S(=O)(=O)C(F)(F)F)C(F)(F)F + CCCO
Conditions | mass density, [3] [kg/m3] | refractive index, [4] | speed of sound, [3] [m/s]
x2 = 0 | 1474.44 ± 0.65 | 1.42525 ± 0.0007 | 1232 ± 2
x2 = 0.0787 | 1457.82 ± 0.57 | 1.42424 ± 0.0007 | 1228 ± 2
x2 = 0.1022 | 1452.69 ± 0.55 | 1.42391 ± 0.0007 | 1227 ± 2
x2 = 0.247 | 1417.04 ± 0.44 | 1.42164 ± 0.00069 | 1220 ± 2
x2 = 0.39 | 1372.22 ± 0.36 | 1.41887 ± 0.00069 | 1212 ± 2
x2 = 0.442 | 1352.74 ± 0.35 | 1.41758 ± 0.00069 | 1208 ± 2
x2 = 0.4877 | 1333.71 ± 0.35 | 1.41661 ± 0.00068 | 1205 ± 2
x2 = 0.569 | 1294.62 ± 0.32 | 1.41422 ± 0.00068 | 1198 ± 2
x2 = 0.6455 | 1250.12 ± 0.29 | 1.41148 ± 0.00068 | 1191 ± 2
x2 = 0.703 | 1209.58 ± 0.27 | 1.40897 ± 0.00068 | 1187 ± 2
x2 = 0.75 | 1170.92 ± 0.26 | 1.40667 ± 0.00068 | 1183 ± 2
x2 = 0.8048 | 1117.65 ± 0.23 | 1.40345 ± 0.00068 | 1179 ± 2
x2 = 0.8492 | 1066.16 ± 0.27 | 1.40025 ± 0.00068 | 1178 ± 2

CCCn1cc[n+](C)c1.O=S(=O)([N-]S(=O)(=O)C(F)(F)F)C(F)(F)F + CC(C)O
Conditions | mass density, [3] [kg/m3] | refractive index, [4] | speed of sound, [3] [m/s]
x2 = 0 | 1474.44 ± 0.65 | 1.42525 ± 0.0007 | 1232 ± 2
x2 = 0.0493 | 1463.7 ± 0.6 | 1.42452 ± 0.0007 | 1228 ± 2
x2 = 0.0921 | 1454.1 ± 0.57 | 1.42385 ± 0.0007 | 1226 ± 2
x2 = 0.291 | 1401.23 ± 0.43 | 1.42016 ± 0.00069 | 1212 ± 2
x2 = 0.4093 | 1360.46 ± 0.37 | 1.41732 ± 0.00069 | 1202 ± 2
x2 = 0.5071 | 1318.46 ± 0.37 | 1.41439 ± 0.00069 | 1191 ± 2
x2 = 0.6113 | 1262.2 ± 0.32 | 1.41043 ± 0.00068 | 1178 ± 2
x2 = 0.6964 | 1203.91 ± 0.3 | 1.40624 ± 0.00068 | 1166 ± 2
x2 = 0.803 | 1106.76 ± 0.24 | 1.39926 ± 0.00068 | 1148 ± 2
x2 = 0.9009 | 979.02 ± 0.16 | 1.39013 ± 0.00068 | 1135 ± 2
x2 = 0.9503 | 892.06 ± 0.14 | 1.38375 ± 0.00068 | 1134 ± 2

CCCO [propan-1-ol]
Conditions | refractive index
[1], 298.15 K | 1.38307 ± 0.00068

[2], 298.15 K, 101 kPa
Conditions | mass density [kg/m3] | speed of sound [m/s]
– | 800.09 ± 0.12 | 1207 ± 2

CCCn1cc[n+](C)c1.O=S(=O)([N-]S(=O)(=O)C(F)(F)F)C(F)(F)F
[1]
Conditions | refractive index
293.15 K | 1.42669 ± 0.00037
298.15 K | 1.42525 ± 0.00037
303.15 K | 1.42378 ± 0.00037
308.15 K | 1.42224 ± 0.00037
313.15 K | 1.42076 ± 0.00037
318.15 K | 1.41926 ± 0.00037
323.15 K | 1.41776 ± 0.00037
328.15 K | 1.41625 ± 0.00037
333.15 K | 1.41479 ± 0.00037
338.15 K | 1.41334 ± 0.00037
343.15 K | 1.41185 ± 0.00037

[2], 101.33 kPa
Conditions | mass density [kg/m3] | speed of sound [m/s] | viscosity [mPa·s]
293.15 K | 1479.39 ± 0.65 | 1243 ± 2 | –
298.15 K | 1474.44 ± 0.65 | 1232 ± 2 | 43.7 ± 0.6
303.15 K | 1469.5 ± 0.65 | 1221 ± 2 | 35.68 ± 0.54
308.15 K | 1464.58 ± 0.64 | 1210 ± 2 | 29.51 ± 0.49
313.15 K | 1459.67 ± 0.64 | 1199 ± 2 | 24.77 ± 0.46
318.15 K | 1454.78 ± 0.63 | 1188 ± 2 | 21.01 ± 0.44
323.15 K | 1449.91 ± 0.63 | 1178 ± 2 | 18.04 ± 0.43
328.15 K | 1445.06 ± 0.62 | 1168 ± 2 | 15.59 ± 0.42
333.15 K | 1440.23 ± 0.62 | 1157 ± 2 | 13.63 ± 0.42
338.15 K | 1435.42 ± 0.61 | 1147 ± 2 | 12.02 ± 0.41
343.15 K | 1430.62 ± 0.61 | 1137 ± 2 | 10.66 ± 0.41

CCO [ethanol]
Conditions | refractive index
[1], 298.15 K | 1.35929 ± 0.00068

[2], 298.15 K, 101 kPa
Conditions | mass density [kg/m3] | speed of sound [m/s]
– | 785.33 ± 0.12 | 1144 ± 2

CCCO [propan-1-ol] + CCCn1cc[n+](C)c1.O=S(=O)([N-]S(=O)(=O)C(F)(F)F)C(F)(F)F
x1 = 1
Conditions | mass density [kg/m3] | refractive index | speed of sound [m/s]
[3] | 800.09 ± 0.12 | – | 1207 ± 2
[4] | – | 1.38307 ± 0.00068 | –

CC(C)O [propan-2-ol] + CCCn1cc[n+](C)c1.O=S(=O)([N-]S(=O)(=O)C(F)(F)F)C(F)(F)F
x1 = 1
Conditions | mass density [kg/m3] | refractive index | speed of sound [m/s]
[3] | 780.98 ± 0.13 | – | 1139 ± 2
[4] | – | 1.375 ± 0.00068 | –
